Read-outs that look alike come from different tables or passages of the source.
Assays:
Menin MLL 4-43 = target: T1, Menin MLL 4-43 (Homo sapiens, UniProt O00255); assay: Fluorescence polarization (FP) competition assay of the menin-MLL interaction; format: binding
T1 sequence (O00255 1-610): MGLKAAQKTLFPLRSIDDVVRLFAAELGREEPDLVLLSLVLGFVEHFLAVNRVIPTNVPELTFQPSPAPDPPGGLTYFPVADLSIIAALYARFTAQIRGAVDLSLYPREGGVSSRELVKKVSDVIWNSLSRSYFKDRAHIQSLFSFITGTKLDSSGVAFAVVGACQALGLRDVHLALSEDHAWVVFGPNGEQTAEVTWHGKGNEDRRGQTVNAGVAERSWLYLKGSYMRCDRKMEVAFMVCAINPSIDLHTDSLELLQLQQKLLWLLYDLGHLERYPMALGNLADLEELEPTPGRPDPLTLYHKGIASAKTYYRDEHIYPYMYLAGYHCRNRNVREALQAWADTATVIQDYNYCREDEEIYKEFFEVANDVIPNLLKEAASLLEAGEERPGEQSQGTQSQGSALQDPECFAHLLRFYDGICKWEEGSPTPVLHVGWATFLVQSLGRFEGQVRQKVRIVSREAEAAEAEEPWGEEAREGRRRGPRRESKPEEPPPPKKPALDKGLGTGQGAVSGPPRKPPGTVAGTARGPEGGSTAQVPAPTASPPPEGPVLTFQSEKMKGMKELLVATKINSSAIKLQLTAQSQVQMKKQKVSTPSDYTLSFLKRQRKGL

MV4; 11-luc tumors = assay: Efficacy study in xenotransplantation mouse model of MLL leukemia (luminescence); format: in vivo; settings: NSG mice, 120 mg/kg b.i.d. oral gavage, 6 days of treatment
Description: Example 20: Efficacy study in xenotransplantation mouse model ofMLL leukemia. […] Luciferase expressing human MV4; 11 leukemia cells (MV4; 11-luc) were engrafted intravenously via tail vein injection (1×10^7 cells/animal) When the mean luminescence of the cells reached approximately 1.5×10^6, the tumor-bearing mice were randomly assigned to a vehicle control or a compound treatment group (5 animals per group). Animals in each of the treatment groups were administered a different compound of the present disclosure by oral gavage (120 mg/kg b.i.d, 150 mg/kg b.i.d., 200 mg/kg b.i.d., or 200 mg/kg q.d.). Body weight was measured daily, while mean luminescence was measured 6 days after initiating the treatment with compound or vehicle.

MLL-AF9 BMC = assay: Cell proliferation assay (CellTiter-Glo); format: cell-based
Description: Example 9: Cell proliferation assay. The ability of a compound of the present disclosure to inhibit the growth of cells, such as human leukemia cell, acute myeloid leukemia cell, cells with an MLL fusion, control cells without an MLL fusion, VCaP, LNCaP, 22RV1, DU145, LNCaP-AR, MV4; 11, KOPN-8, ML-2, MOLM-13, RS4; 11, SEM, bone marrow cells (BMCs), MLL-AF9, MLL-AF4, MLL-ENL, MLL-CBP, MLL-GAS7, MLL-AF1p, MLL-AF6, HM-2, E2A-HLF, REH, U937, K562, KG-1, HL-60 and NB4 cells, is tested using a cell viability assay, such as the Promega CellTiter-Glo® Luminescent Cell Viability Assay (Promega Technical Bulletin, 2015, “CellTiter-Glo® Luminescent Cell Viability Assay”: 1-15, herein incorporated by reference in its entirety). Cells are plated at relevant concentrations, for example about 1×10^5-2×10^5 cells per well in a 96-well plate. A compound of the present disclosure is added at a concentration up to about 2 μM with eight, 2-fold serial dilutions for each compound. Cells are incubated at 37° C. for a period of time, for example, 72 hours, then cells in the control wells are counted. Media is changed to restore viable cell numbers to the original concentration, and compounds are re-supplied. Proliferation is measured about 72 hours later using Promega CellTiter-Glo® reagents, as per kit instructions.

[1] = tested on: MV4; 11 cells (MLL-AF4 AML); assay: MTT cell proliferation assay; format: cell-based, human
Description: (§1) Example 18: Cell proliferation assays. The ability of a compound of the present disclosure to inhibit the growth of cells was tested in both MLL leukemia cell lines (e.g., MV4; 11, MOLM13 and/or KOPN8) and control cell lines (e.g., K562, REH, U937, KG-1, and/or HL-60) using the MTT cell proliferation assay (ATCC® 30-1010K). […] Cells were plated at about 1×10^5 cells per well in a 96-well plate. A compound of the present disclosure was added at a concentration up to about 2 μM with seven, 2-fold serial dilutions for each compound. Cells were incubated at 37° C. for 72 hours, then cells in the control wells were counted. Media was changed to restore viable cell numbers to the original concentration, and compounds were re-supplied. Proliferation was measured 96 hours later using MTT reagents, as per kit instructions. […] The GIso value of a compound of the present disclosure, such as Compound D of FIG. 11, was 10 nM in MV4; 11 cells (MLL-AF4 AML), 17 nM in MOLM13 cells (MLL-AF9 AML), 18 nM in KOPN8 (MLL-ENL AML) cells, greater than 2000 nM in HL-60 cells, and greater than 2000 nM in U937 cells. REH, K562, KG-1, and U937 cells are control cell lines without MLL fusions.

[2] = tested on: MLL fusion protein target genes HOXA9, DLX2, MEIS1 and differentiation marker CD11B; assay: qRT-PCR gene expression in bone marrow samples of treated xenotransplantation mice; format: in vivo, mouse; settings: Day 7 of treatment, qRT-PCR normalized to GAPDH
Description: Animals were sacrificed on Day 7 of treatment and bone marrow samples collected and prepared for gene expression analysis. Expression levels of MLL fusion protein target genes HOXA9, DLX2, and/or MEIS1 were measured by qRT-PCR and are presented in FIG. 6, FIG. 9 and FIG. 12 as fold changes normalized to GAPDH expression.

MOLM13 cells = assay: Survival study in xenotransplantation MOLM13 xenograft model; format: in vivo, mouse
Description: For survival studies in the xenotransplantation MOLM13 xenograft model, 6 to 8-week old female NSG mice were intravenously injected with 0.5×10^6 MOLM13 cells harboring […] translocation. At day 4 after transplantation, treatment was initiated with Compound C, 75 mg/kg, b.i.d., p.o. or vehicle (20% 2-hydroxypropyl-b-cyclodextrin with 5% cremophore) and was continued for 16 consecutive days in the compound treated mice or until terminal leukemia developed in the vehicle-treated mice.
Similarly, a 120 mg/kg b.i.d. treatment regimen of Compound D was initiated on day 6 after MOLM13 transplantation and continued for 16 consecutive days in the compound treated mice or until terminal leukemia developed in the vehicle-treated mice.

U937 cells = assay: MTT cell proliferation assay, control cell line; format: cell-based
Description: as §1

HL-60 cells = assay: MTT cell proliferation assay, control cell line; format: cell-based; settings: HL-60 cells (control)
Description: as §1

[3] = tested on: KOPN8 (MLL-ENL AML) cells; assay: MTT cell proliferation assay; format: cell-based
Description: as §1

[4] = tested on: MOLM13 cells (MLL-AF9 AML); assay: MTT cell proliferation assay; format: cell-based
Description: as §1

[5] = fluorescence polarization assay, read-out: Menin MLL 4-43 IC50

What does the source list for `Cc1nc(NC2CCN(Cc3ccc4c(cc(C#N)n4C[C@H](C)N4CCC(S(C)(=O)=O)CC4)c3C)CC2)c2cc(CC(F)(F)F)sc2n1` [Compound 165]?
IC50 (Menin MLL 4-43; [5]): < 50 nM; IC50 (Menin MLL 4-43; read-out: IC50 value (ability to disrupt the menin-MLL interaction, per Example 6)): < 50 nM; Tumor growth (luminescence) relative to vehicle control (MV4; 11-luc tumors): inhibited tumor growth and induced tumor regression; GI50 (MLL-AF9 BMC): < 10 nM

With `CNc1nc(NC2CCN(Cc3ccc4c(cc(C#N)n4C[C@H](C)N4CCC(C)(O)CC4)c3C)CC2)c2cc(CC(F)(F)F)sc2n1` [Compound 207] as the molecule, how does the IC50 (Menin MLL 4-43; [5]) read?
The IC50 was under 50 nM.

What about the GI50 (MLL-AF9 BMC) of the same molecule?
Its GI50 is under 10 nM.

What does the source list for `CNS(=O)(=O)C1CCN([C@@H](C)Cn2c(C#N)cc3c(C)c(CN4CCC(Nc5nc(OC)nc6sc(CC(F)(F)F)cc56)CC4)ccc32)CC1` [Compound 214]?
IC50 (Menin MLL 4-43; [5]): < 50 nM; GI50 (MLL-AF9 BMC): < 10 nM

What does the source list for `CNC(=O)C1CN([C@@H](C)Cn2c(C#N)cc3c(C)c(CN4CCC(Nc5nc(NC)nc6sc(CC(F)(F)F)cc56)CC4)ccc32)CCO1` (stereo partly drawn) [Compound 217]?
IC50 (Menin MLL 4-43; [5]): < 50 nM; GI50 (MLL-AF9 BMC): 10 to 50 nM

Which GI50 [1] does the source give for `Cc1nc(NC2CCN(Cc3ccc4c(cc(C#N)n4C[C@H](C)N4CCC(S(C)(=O)=O)CC4)c3C)CC2)c2cc(CC(F)(F)F)sc2n1` [Compound D] here?
Its GI50 is 10 nM.

What about the “Expression level of HOXA9” value [2] of the same molecule?
Its value is “substantially reduced”.

What about the “Expression level of MEIS1” value [2] of the same molecule?
The value was “substantially reduced”.

And the “Expression of differentiation marker CD1 lb” value [2]?
The value was “elevated”.

What about the Median survival time (MOLM13 cells; NSG mice, 120 mg/kg b.i.d., 16 consecutive days from day 6 after MOLM13 transplantation) of the same molecule?
The Median survival time was 24 days.

And the Survival benefit (MOLM13 cells; versus vehicle control group)?
The Survival benefit was 75%.

And the Survival benefit (MOLM13 cells; versus vehicle control group (16 days))?
Its Survival benefit is 18 days.

And the GI50 (U937 cells)?
The GI50 was over 2000 nM.

What about the GI50 (HL-60 cells) of the same molecule?
The GI50 was over 2000 nM.

What about the GI50 [3] of the same molecule?
The GI50 was 18 nM.

And the GI50 [4]?
Its GI50 is 17 nM.

— US11673898B2, “Substituted inhibitors of menin-MLL and methods of use” (Kura Oncology, Inc., priority 2016, dated 2023)
